The data set relates to urease.

Like-named read-outs stand apart in the source and are kept apart here.

Description: The urea-stabilizing effect detected as the volatile NH3 losses from soil surface applied urea:
176 g air dried soil is filled into 500 mL laboratory bottle, which is then be watered with de-ionized water up to 50% of its water holding capacity and incubated at room temperature (about 21° C.) for 24 h.
Urea granules are evenly distributed on the soil in each bottle. Each granule is treated with 5 μL of the respective products, containg the compositions and mixtures of the invention in the appropriate concentrations. N amount applied was 80 mg per bottle.
NH3 free air blows constantly at a rate of about 4 L per min. through the bottle which bubbles through a scrubber solution which is periodically renewed and analyzed for NH4^+ with an autoanalyzer.

`CCCCNP(N)(N)=S` [NBPT, N-(n-butyl)thiophosphoric acid triamide]: the “reduction of NH3—N losses (UI effect), in words” value by setting is: (Piammon, UI and DMPP on the same granules) “Nearly no reduction of NH3—N losses”; (UI applied on Piammon granules only as well as mixed with DMPSA-treated AS granules) “Significant reduction of NH3—N losses”; (UI applied on urea granules only and mixed with DMPP-treated AS granules) “Significant reduction of NH3—N losses”; (UI applied on urea granules only and mixed with DMPP-treated urea granules) “Significant reduction of NH3—N losses”; (UI applied on urea granules only as well as mixed with DMPSA-treated urea granules) “Significant reduction of NH3—N losses”; (urea, UI and DMPP on the same urea granules) “No reduction of NH3—N losses”. The “stability of the urease inhibitor, in words” value by setting is: (UI and DMPP on the same Piammon granules) “destroyed by DMPP”; (UI and DMPP on the same urea granules) “destroyed by DMPP”.

Source of the values: patent publication US20230052403A1, “MIXTURES COMPRISING A SOLID CARRIER COMPRISING AN UREASE INHIBITOR AND A FURTHER SOLID CARRIER COMPRISING A NITRIFICATION INHIBITOR” (BASF SE, priority 2020, published 2023).
